Measured values taken from patent US20230203482A1, “Methods of Rescuing Stop Codons via Genetic Reassignment with ACE-tRNA” (THE WISTAR INSTITUTE OF ANATOMY AND BIOLOGY, priority 2017, published 2023).

B1: Glychr19.trna2: top performing glycine ACE-tRNA UGA suppressor, SEQ ID NO: 53 (nucleic acid)
chain: GCGTTGGTGGTATAGTGGTTAGCATAGCTGCCTTCAAAGCAGTTGACCCGGGTTCGATTCCCGGCCAACGCA
modifications: chemistry not fully specified

Test system: native stop codons (TAA, TAG, TGA) of HEK293 transcripts
Test: Ribosome footprint profiling of transcriptome-wide 3′UTRs
Format: cell-based, human
Details: for ribosome occupancy at each nucleotide in the 3′UTR downstream of stop codons: HEK293, log 2-fold change versus control; for readthrough of native stop codons / global translation termination: HEK293, summary in discussion
Source text: The question was raised whether ACE-tRNAs that show efficacious suppression of premature stop codons may also induce global readthrough of native stop codons. To address this potential “off target” suppression, a transcriptome-wide quantitative profile of actively engaged ribosomes on all cellular transcripts was obtained by generating libraries of ribosome footprints from HEK293 cells expressing exogenous ACE-tRNAs or a control mock plasmid (puc57GG). Streptomycin was removed from the growth media to prevent readthrough artifacts. For comparison, the ribosome footprint library was also generated from cells in the presence or absence of G418 (150 μM, 48 hours). […] Only transcripts with a minimum threshold of 5 RPKM in the coding sequence and 0.5 RPKM in the 3′UTR in two replicate libraries were included for the quantitation comparison (254 transcripts in G418 and 495-748 transcripts in ACE-tRNAs). […] ACE-tRNAs examined here had no detectable change of 3′UTR ribosome density with the exception of ACE-tRNA Gln-UAA and Arg-UGA which induced approximately a 2-fold increase in 3′UTR ribosome density for the cognate stop codon complimentary to the ACE-tRNA anticodon. Understanding the biological significance of 2-fold readthrough of protein stops will require further study, but this effect is substantially lower compared to the 100- to 1000-fold suppression of PTC for the same ACE-tRNA.
Multiple in-frame stop codons are frequently found at the end of genes^37-39 and may cause a minor difference in overall 3′UTR ribosome density for ACE-tRNA and G418 treatment. Ribosome occupancy was examined at each nucleotide in the 3′UTR within a 60 nt region downstream of the stop codons. […] Reads were normalized per total million-mapped reads, compared against control cells, and reported as a log 2-fold change as in panel A. More than 5,200 transcripts were mapped to at least 1 footprint in the region of interest. […] Taken together, the ribosome profiling data argue that efficiency of native stop codon suppression by ACE-tRNAs is generally low, and markedly less than the level of PTC suppression.
Ribosome Footprint Profiling Library preparation. HEK293 cells transiently transfected with ACE-tRNAs and control plasmid (puc57GG) were grown in standard grown media in the absence of Pen-Strep for 48 h. Libraries were prepared as described^55, with a few modifications. Briefly, cells were rapidly cooled by addition of ice-cold PBS, lysed in lysis buffer (20 mM Tris-HCl/pH7.4, 150 mM NaCl, 5 mM MgCl2, 1 mM DTT, 1% (v/v) Triton X-100, and 25 U ml^−1 Turbo DNase I) for 10 min on ice, and triturated with ten times through a 26-G needle. After clearance by centrifugation at 16,000 g for 10 min at 4° C., the lysates were digested with 100 U RNase I (Ambion, USA) per A260 lysate at room temperature for 45 min with gentle agitation prior to adding 200 U RiboLock RNase Inhibitor (Thermo Scientific). Ribosome protected mRNA fragments were then isolated by loading lysates onto a 1M sucrose cushion prepared in modified polysome buffer (20 mM Tris-HCl/pH7.4, 150 mM NaCl, 8.5 mM MgCl2, 0.5 mM DTT, 20 U ml^−1 RiboLock RNase Inhibitor) and centrifugated at 70,000 rpm at 4° C. for 2 h using a Beckmen TLA-110 rotor. Ribosome pellets containing mRNA footprints were extracted using TRIzol and separated on a denaturing 12% polyacrylamide gel containing 8M urea. RNA fragments with sizes ranging from 26 to 34 nt were manually excised from the gel stained with SYBR Gold (Invitrogen) and isolated to generate the ribosome-protected fragment library. Contaminating rRNA fragments depleted using a Ribo-Zero kit (Illumina). 3′ Oligonucleotide adaptor ligation, reverse transcription, circularization, and secondary rRNA depletion using biotinylated rRNA depletion oligos (Table 9) were performed as described^55. Libraries were barcoded using indexing primers for each sample during PCR amplification. […]

Molecule | ribosome occupancy at each nucleotide in the 3′UTR downstream of stop codons | readthrough of native stop codons / global translation termination
Trpchr17.trna39: top performing tryptophan ACE-tRNA UGA suppressor, SEQ ID NO: 48 | no observable change of ribosome occupancy | no significant effect on global translation termination
B1 | no observable change of ribosome occupancy | no significant effect on global translation termination
